The text below walks through data of patent US7879853B2, “4,6-disubstituted pyrimidines and their use as protein kinase inhibitors” (Bayer Schering Pharma AG, priority 2004, dated 2011).

Consider `NCCc1ccc(C(=O)Nc2ccc(Nc3cc(-c4cccc5c4oc4ccccc45)ncn3)cc2)cc1.O=C(O)C(F)(F)F` [Compound 55, 4-(2-Amino-ethyl)-N-[4-(6-dibenzofuran-4-yl-pyrimidin-4-ylamino)-phenyl]-benzamide trifluoroacetate], for which the melting point was 202 °C.

Turning to `NCC(C(=O)Nc1cccc(Nc2cc(-c3cccc4c3oc3ccccc34)ncn2)c1)c1ccc(Cl)c(Cl)c1.O=C(O)C(F)(F)F` (stereo not drawn) [Compound 76, 3-Amino-N-[3-(6-dibenzofuran-4-yl-pyrimidin-4-ylamino)-phenyl]-2-(3,4-dichlorophenyl)-propionamide trifluoroacetat], the melting point is 138 to 145 °C.

`CN(C)c1cccc(C(=O)Nc2ccc(Nc3cc(-c4cccc5c4oc4ccccc45)ncn3)cc2)c1` [Compound 10, N-[4-(6-Dibenzofuran-4-yl-pyrimidin-4-ylamino)-phenyl]-3-dimethylamino-benzamide] returned a melting point of 225 to 232 °C.

`NCc1cc(C(=O)Nc2ccc(Nc3cc(-c4cccc5c4oc4ccccc45)ncn3)cc2)ccn1.O=C(O)C(F)(F)F` [Compound 65, 2-Aminomethyl-N-[4-(6-dibenzofuran-4-yl-pyrimidin-4-ylamino)-phenyl]-isonicotinamide trifluoroacetate] showed a melting point of 248 to 250 °C.

Molecule `Nc1ccc(CC(=O)Nc2ccc(Nc3cc(-c4cccc5c4oc4ccccc45)ncn3)cc2)cc1.O=C(O)C(F)(F)F` registered a melting point of 125 to 130 °C.

`CC(C)(C)OC(=O)Nc1ccc(CC(=O)Nc2ccc(Nc3cc(-c4cccc5c4oc4ccccc45)ncn3)cc2)cc1` [Compound 21, tert-Butyl N-(4-{[4-(6-dibenzofuran-4-yl-pyrimidin-4-ylamino)-phenylcarbamoyl]-methyl}-phenyl)-carbamate]: the melting point was greater than 320 °C.

In turn, `CC(C)(C)OC(=O)N1CCCC(c2ccc(C(=O)Nc3ccc(Nc4cc(-c5cccc6c5oc5ccccc56)ncn4)cc3)cc2)C1` (stereo not drawn) [Compound 20, tert-Butyl 3-{4-[4-(6-Dibenzofuran-4-yl-pyrimidin-4-ylamino)-phenylcarbamoyl]-phenyl}-piperidin-1-carboxylate] showed a melting point of 259 to 261 °C.

Consider `Nc1cccc(C(=O)Nc2cccc(Nc3cc(-c4cccc5c4oc4ccccc45)ncn3)c2)c1.O=C(O)C(F)(F)F`, for which the melting point is 150 to 153 °C.

Molecule `CC(C)(C)OC(=O)NCCc1ccc(C(=O)Nc2ccc(Nc3cc(-c4cccc5c4oc4ccccc45)ncn3)cc2)cc1` [Compound 23, tert-Butyl N-(2-{4-[4-(6-Dibenzofurane-4-yl-pyrimidin-4-ylamino)-phenylcarbamoyl]phenyl}-ethyl)-carbamate] displayed a melting point greater than 250 °C.

The molecule `CN(C)c1cccc(C(=O)Nc2cccc(Nc3cc(-c4cccc5c4oc4ccccc45)ncn3)c2)c1` [Compound 48, N-[3-(6-Dibenzofuran-4-yl-pyrimidin-4-ylamino)-phenyl]-3-dimethylamino-benzamide] registered a melting point of 245 to 251 °C.

As for `NCC(C(=O)Nc1ccc(Nc2cc(-c3cccc4c3oc3ccccc34)ncn2)cc1)c1ccc(Cl)c(Cl)c1.O=C(O)C(F)(F)F` (stereo not drawn) [Compound 75, 3-Amino-N-[4-(6-dibenzofuran-4-yl-pyrimidin-4-ylamino)-phenyl]-2-(3,4-dichloro-phenyl)-propionamide trifluoroacetate], the melting point was 195 to 205 °C.

Regarding `CC(C)(C)OC(=O)Nc1ccccc1C(=O)Nc1ccc(Nc2cc(-c3cccc4c3oc3ccccc34)ncn2)cc1` [Compound 18, tert-Butyl N-{2-[4-(6-Dibenzofuran-4-yl-pyrimidin-4-ylamino)-phenylcarbamoyl]-phenyl}-carbamate], the melting point was greater than 340 °C.

The molecule `CN(C)c1ccccc1C(=O)Nc1ccc(Nc2cc(-c3cccc4c3oc3ccccc34)ncn2)cc1` [Compound 5, N-[4-(6-Dibenzofuran-4-yl-pyrimidin-4-ylamino)-phenyl]-2-dimethylamino-benzamide] registered a melting point of 246 to 249 °C.

As to `CC(C)(C)OC(=O)NCc1ccnc(C(=O)Nc2ccc(Nc3cc(-c4cccc5c4oc4ccccc45)ncn3)cc2)c1` [Compound 24, tert-Butyl N-{2-[4-(6-Dibenzofuran-4-yl-pyrimidin-4-ylamino)-phenylcarbamoyl]-pyridin-4-ylmethyl}-carbamate], the melting point was 245 °C.

Turning to `CC(C)(C)OC(=O)NCc1ccc(C(=O)Nc2ccc(Nc3cc(-c4cccc5c4oc4ccccc45)ncn3)cc2)cc1` [Compound 17, tert-Butyl N-{4-[4-(6-dibenzofuran-4-yl-pyrimidin-4-ylamino)-phenylcarbamoyl]-benzyl}-carbamate], the melting point is 311 to 321 °C.

Molecule `NCCc1ccc(C(=O)Nc2cccc(Nc3cc(-c4cccc5c4oc4ccccc45)ncn3)c2)cc1.O=C(O)C(F)(F)F` [Compound 58, 4-(2-Amino-ethyl)-N-[3-(6-dibenzofuran-4-yl-pyrimidin-4-ylamino)-phenyl]-benzamide trifluoroacetate] had a melting point of 87 to 90 °C.

`CC(C)(C)OC(=O)Nc1cccc(C(=O)Nc2cccc(Nc3cc(-c4cccc5c4oc4ccccc45)ncn3)c2)c1` [Compound 28, tert-Butyl {3-[3-(6-dibenzofuran-4-yl-pyrimidin-4-ylamino)-phenylcarbamoyl]-phenyl}-carbamate] gave a melting point of 160 to 163 °C.

As to `CC(C)(C)OC(=O)NCc1cccc(C(=O)Nc2ccc(Nc3cc(-c4cccc5c4oc4ccccc45)ncn3)cc2)c1` [Compound 22, tert-Butyl N-{3-[4-(6-Dibenzofuran-4-yl-pyrimidin-4-ylamino)-phenylcarbamoyl]-benzyl}-carbamate], the melting point came to 237 °C.

Consider `O=C(Nc1ccc(Nc2cc(-c3cccc4c3oc3ccccc34)ncn2)cc1)c1ccc(N2CCOCC2)nc1` [Compound 15, N-[4-(6-Dibenzofuran-4-yl-pyrimidin-4-ylamino)-phenyl]-6-morpholin-4-yl-nicotinamide], for which the melting point was 310 to 312 °C.

The molecule `CN(C)c1ccc(C(=O)Nc2ccc(Nc3cc(-c4cccc5c4oc4ccccc45)ncn3)cc2)cc1` [Compound 2, N-[4-(6-Dibenzofuran-4-yl-pyrimidin-4-ylamino)-phenyl]-4-dimethylamino-benzamide] gave a melting point of 285 to 300 °C.

`CN1CCN(c2ccc(C(=O)Nc3ccc(Nc4cc(-c5cccc6c5oc5ccccc56)ncn4)cc3)cc2)CC1` [Compound 14, N-[4-(6-Dibenzofuran-4-yl-pyrimidin-4-ylamino)-phenyl]-4-(4-methyl-piperazin-1-yl)-benzamide] returned a melting point of 304 to 319 °C.

Turning to `O=C(Nc1ccc(Nc2cc(-c3cccc4c3oc3ccccc34)ncn2)cc1)c1ccc(CN2CCOCC2)cc1` [Compound 13, N-[4-(6-Dibenzofuran-4-yl-pyrimidin-4-ylamino)-phenyl]-4-morpholin-4-ylmethyl-benzamide], the melting point is greater than 250 °C.

Take `NCc1ccc(C(=O)Nc2ccc(Nc3cc(-c4cccc5c4oc4ccccc45)ncn3)cc2)cn1.O=C(O)C(F)(F)F` [Compound 64, 6-Aminomethyl-N-[4-(6-dibenzofuran-4-yl-pyrimidin-4-ylamino)-phenyl]-nicotinamide trifluoroacetate]: the melting point fell in the range of 145 to 150 °C.

Molecule `O=C(Nc1ccc(Nc2cc(-c3cccc4c3oc3ccccc34)ncn2)cc1)c1ccccc1` [Compound 7, N-[4-(6-Dibenzofuran-4-yl-pyrimidin-4-ylamino)-phenyl]-benzamide] had a melting point of 323 to 325 °C.

The term melting point denotes the temperature of the solid-liquid transition.
